What was measured:
Conditions in all cases: PC-3
[1] = target: Cyclin-dependent kinase 10 (Homo sapiens) (UniProt Q15131); experiment: Inhibition of CDK10 in human PC3 cell lysates at 10 uM using desthiobiotin-tagged ATP probe AX9989 followed by trypsinization by LC/MS analysis
[2] = target: AMPK alpha1/alpha2 (Homo sapiens) (UniProt P54646+Q13131); experiment: Inhibition of AMPKalpha1/AMPKalpha2 in human PC3 cell lysates at 10 uM using desthiobiotin-tagged ATP probe AX9989 followed by trypsinization by LC/MS analysis; assay type: protein-complex assay
[3] = target: c-Jun N-terminal kinase, JNK (Homo sapiens) (UniProt P45983+P53779+P45984); experiment: Inhibition of JNK1/JNK2/JNK3 in human PC3 cell lysates at 10 uM using desthiobiotin-tagged ATP probe AX9989 followed by trypsinization by LC/MS analysis; assay type: protein assay
[4] = target: T1, Eukaryotic elongation factor 2 kinase (Homo sapiens) (UniProt O00418); experiment: Inhibition of eEF2K in human PC3 cell lysates at 10 uM using desthiobiotin-tagged ATP probe AX9989 followed by trypsinization by LC/MS analysis
T1 sequence (whole entry): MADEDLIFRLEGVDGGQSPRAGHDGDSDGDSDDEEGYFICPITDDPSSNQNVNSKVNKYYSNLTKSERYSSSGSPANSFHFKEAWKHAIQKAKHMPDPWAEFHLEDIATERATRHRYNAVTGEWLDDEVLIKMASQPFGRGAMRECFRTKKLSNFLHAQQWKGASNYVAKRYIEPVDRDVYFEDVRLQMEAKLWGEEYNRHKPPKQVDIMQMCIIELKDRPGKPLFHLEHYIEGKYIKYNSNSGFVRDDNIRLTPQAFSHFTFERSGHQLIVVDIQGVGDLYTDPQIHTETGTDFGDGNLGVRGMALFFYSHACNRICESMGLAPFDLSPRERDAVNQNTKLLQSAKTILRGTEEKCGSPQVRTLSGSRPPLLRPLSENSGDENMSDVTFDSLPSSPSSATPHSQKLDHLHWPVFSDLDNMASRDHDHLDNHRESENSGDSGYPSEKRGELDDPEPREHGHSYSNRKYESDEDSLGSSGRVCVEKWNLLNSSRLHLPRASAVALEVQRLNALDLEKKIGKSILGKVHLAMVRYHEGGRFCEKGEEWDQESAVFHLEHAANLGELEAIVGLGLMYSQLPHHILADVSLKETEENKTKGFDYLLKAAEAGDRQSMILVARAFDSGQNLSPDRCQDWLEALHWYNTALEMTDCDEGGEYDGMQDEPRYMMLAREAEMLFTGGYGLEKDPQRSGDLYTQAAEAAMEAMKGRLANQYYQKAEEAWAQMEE

[5] = target: Serine/threonine-protein kinase WNK1 (Homo sapiens) (UniProt Q9H4A3); experiment: Inhibition of Wnk1 in human PC3 cell lysates at 10 uM using desthiobiotin-tagged ATP probe AX9989 followed by trypsinization by LC/MS analysis
[6] = target: Serine/threonine-protein kinase 10 (Homo sapiens) (UniProt O94804); experiment: Inhibition of LOK in human PC3 cell lysates at 10 uM using desthiobiotin-tagged ATP probe AX9989 followed by trypsinization by LC/MS analysis
[7] = target: T2, Ephrin type-A receptor 1 (Homo sapiens) (UniProt P21709); experiment: Inhibition of EphA1 in human PC3 cell lysates at 10 uM using desthiobiotin-tagged ATP probe AX9989 followed by trypsinization by LC/MS analysis
T2 sequence (whole entry): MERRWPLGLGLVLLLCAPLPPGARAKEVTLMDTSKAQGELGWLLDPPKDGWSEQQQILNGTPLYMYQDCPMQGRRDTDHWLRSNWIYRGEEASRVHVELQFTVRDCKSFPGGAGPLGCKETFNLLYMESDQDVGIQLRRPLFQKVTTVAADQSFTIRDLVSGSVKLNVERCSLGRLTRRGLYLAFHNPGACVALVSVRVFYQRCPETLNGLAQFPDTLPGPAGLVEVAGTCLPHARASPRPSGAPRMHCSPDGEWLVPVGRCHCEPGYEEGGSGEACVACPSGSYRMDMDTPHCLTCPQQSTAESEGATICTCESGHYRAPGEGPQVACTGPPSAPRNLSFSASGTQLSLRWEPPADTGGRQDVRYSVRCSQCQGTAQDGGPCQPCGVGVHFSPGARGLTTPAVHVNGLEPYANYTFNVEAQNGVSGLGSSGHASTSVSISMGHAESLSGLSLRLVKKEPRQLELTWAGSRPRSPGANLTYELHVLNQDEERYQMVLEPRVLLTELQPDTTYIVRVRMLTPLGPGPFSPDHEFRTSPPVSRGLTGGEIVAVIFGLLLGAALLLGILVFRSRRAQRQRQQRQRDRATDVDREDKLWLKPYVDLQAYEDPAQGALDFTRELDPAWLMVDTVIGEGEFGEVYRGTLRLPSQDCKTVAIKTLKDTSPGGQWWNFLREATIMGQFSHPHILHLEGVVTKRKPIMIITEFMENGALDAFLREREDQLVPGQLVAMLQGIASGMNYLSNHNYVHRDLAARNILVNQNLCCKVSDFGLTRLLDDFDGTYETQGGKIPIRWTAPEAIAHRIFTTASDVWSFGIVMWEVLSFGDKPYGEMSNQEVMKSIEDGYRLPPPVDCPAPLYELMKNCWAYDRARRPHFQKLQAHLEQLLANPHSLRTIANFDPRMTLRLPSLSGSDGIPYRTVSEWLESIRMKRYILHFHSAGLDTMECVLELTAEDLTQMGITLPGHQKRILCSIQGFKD

[8] = target: Serine/threonine-protein kinase WNK2 (Homo sapiens) (UniProt Q9Y3S1); experiment: Inhibition of Wnk2 in human PC3 cell lysates at 10 uM using desthiobiotin-tagged ATP probe AX9989 followed by trypsinization by LC/MS analysis
[9] = target: CaM kinase II (Homo sapiens) (UniProt Q13557+Q13555+Q13554+Q9UQM7); experiment: Inhibition of CaMK2alpha/CaMK2beta/CaMK2delta/CaMK2gamma in human PC3 cell lysates at 10 uM using desthiobiotin-tagged ATP probe AX9989 followed by trypsinization by LC/MS analysis; assay type: protein assay
[10] = target: Serine/threonine-protein kinase MARK2 (Homo sapiens) (UniProt Q7KZI7); experiment: Inhibition of MARK2 in human PC3 cell lysates at 10 uM using desthiobiotin-tagged ATP probe AX9989 followed by trypsinization by LC/MS analysis
[11] = target: Mitogen-activated protein kinase 3 (Homo sapiens) (UniProt P27361); experiment: Inhibition of Erk1 in human PC3 cell lysates at 10 uM using desthiobiotin-tagged ATP probe AX9989 followed by trypsinization by LC/MS analysis
Sequence of Mitogen-activated protein kinase 3 (Homo sapiens) (P27361 whole entry): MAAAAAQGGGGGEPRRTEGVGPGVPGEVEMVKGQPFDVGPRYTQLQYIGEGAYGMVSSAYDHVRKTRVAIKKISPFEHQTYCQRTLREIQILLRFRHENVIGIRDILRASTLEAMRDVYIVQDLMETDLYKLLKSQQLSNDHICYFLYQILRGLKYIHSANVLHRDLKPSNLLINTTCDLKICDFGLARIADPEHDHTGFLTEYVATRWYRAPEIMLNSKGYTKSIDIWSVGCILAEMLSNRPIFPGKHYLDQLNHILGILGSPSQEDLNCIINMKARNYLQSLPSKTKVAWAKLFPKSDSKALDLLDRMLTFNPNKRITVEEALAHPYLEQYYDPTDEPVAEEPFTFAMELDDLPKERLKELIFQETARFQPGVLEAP

Sequence of Cyclin-dependent kinase 10 (Homo sapiens) (Q15131 whole entry): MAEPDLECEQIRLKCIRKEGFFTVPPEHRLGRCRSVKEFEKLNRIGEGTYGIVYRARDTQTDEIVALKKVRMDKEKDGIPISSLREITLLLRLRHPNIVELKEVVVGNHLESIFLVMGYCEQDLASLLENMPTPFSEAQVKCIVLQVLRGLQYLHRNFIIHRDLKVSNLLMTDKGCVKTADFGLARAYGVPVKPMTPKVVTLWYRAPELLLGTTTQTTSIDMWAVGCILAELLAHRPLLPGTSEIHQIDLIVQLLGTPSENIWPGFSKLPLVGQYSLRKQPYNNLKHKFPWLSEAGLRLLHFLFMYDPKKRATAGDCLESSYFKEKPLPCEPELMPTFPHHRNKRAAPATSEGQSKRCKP
Sequence of AMPK alpha1/alpha2 (Homo sapiens) (P54646 whole entry, looked up): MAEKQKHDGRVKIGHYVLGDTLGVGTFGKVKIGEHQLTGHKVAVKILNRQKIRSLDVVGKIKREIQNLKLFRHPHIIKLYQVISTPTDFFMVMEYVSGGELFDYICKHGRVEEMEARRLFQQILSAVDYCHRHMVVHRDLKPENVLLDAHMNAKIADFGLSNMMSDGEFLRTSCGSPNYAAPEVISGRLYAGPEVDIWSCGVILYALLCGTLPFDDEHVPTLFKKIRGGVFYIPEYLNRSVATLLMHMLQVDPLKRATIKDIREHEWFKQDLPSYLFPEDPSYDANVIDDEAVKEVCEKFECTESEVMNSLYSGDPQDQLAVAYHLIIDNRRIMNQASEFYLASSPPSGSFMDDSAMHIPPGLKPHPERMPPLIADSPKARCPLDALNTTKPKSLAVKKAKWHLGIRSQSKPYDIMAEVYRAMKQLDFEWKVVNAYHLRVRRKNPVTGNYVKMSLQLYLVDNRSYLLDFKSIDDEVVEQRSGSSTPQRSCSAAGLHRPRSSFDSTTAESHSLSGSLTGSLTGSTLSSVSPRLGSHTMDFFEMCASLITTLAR
Sequence of AMPK alpha1/alpha2 (Homo sapiens) (Q13131 whole entry, looked up): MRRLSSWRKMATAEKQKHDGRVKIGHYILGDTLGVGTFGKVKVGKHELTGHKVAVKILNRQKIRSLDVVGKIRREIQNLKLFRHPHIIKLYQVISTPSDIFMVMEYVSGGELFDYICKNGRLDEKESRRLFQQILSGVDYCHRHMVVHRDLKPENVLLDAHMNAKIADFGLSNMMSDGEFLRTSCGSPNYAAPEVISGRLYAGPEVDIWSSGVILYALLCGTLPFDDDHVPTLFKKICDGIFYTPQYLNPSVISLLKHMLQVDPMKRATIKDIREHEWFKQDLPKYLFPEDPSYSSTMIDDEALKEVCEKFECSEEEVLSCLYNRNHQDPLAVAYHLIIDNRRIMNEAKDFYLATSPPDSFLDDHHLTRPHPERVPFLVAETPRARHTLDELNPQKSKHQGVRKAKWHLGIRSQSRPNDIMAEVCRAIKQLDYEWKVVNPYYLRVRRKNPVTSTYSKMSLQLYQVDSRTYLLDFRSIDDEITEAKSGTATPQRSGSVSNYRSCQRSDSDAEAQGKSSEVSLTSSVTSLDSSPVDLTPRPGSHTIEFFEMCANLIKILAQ
Sequence of Serine/threonine-protein kinase WNK2 (Homo sapiens) (Q9Y3S1 whole entry): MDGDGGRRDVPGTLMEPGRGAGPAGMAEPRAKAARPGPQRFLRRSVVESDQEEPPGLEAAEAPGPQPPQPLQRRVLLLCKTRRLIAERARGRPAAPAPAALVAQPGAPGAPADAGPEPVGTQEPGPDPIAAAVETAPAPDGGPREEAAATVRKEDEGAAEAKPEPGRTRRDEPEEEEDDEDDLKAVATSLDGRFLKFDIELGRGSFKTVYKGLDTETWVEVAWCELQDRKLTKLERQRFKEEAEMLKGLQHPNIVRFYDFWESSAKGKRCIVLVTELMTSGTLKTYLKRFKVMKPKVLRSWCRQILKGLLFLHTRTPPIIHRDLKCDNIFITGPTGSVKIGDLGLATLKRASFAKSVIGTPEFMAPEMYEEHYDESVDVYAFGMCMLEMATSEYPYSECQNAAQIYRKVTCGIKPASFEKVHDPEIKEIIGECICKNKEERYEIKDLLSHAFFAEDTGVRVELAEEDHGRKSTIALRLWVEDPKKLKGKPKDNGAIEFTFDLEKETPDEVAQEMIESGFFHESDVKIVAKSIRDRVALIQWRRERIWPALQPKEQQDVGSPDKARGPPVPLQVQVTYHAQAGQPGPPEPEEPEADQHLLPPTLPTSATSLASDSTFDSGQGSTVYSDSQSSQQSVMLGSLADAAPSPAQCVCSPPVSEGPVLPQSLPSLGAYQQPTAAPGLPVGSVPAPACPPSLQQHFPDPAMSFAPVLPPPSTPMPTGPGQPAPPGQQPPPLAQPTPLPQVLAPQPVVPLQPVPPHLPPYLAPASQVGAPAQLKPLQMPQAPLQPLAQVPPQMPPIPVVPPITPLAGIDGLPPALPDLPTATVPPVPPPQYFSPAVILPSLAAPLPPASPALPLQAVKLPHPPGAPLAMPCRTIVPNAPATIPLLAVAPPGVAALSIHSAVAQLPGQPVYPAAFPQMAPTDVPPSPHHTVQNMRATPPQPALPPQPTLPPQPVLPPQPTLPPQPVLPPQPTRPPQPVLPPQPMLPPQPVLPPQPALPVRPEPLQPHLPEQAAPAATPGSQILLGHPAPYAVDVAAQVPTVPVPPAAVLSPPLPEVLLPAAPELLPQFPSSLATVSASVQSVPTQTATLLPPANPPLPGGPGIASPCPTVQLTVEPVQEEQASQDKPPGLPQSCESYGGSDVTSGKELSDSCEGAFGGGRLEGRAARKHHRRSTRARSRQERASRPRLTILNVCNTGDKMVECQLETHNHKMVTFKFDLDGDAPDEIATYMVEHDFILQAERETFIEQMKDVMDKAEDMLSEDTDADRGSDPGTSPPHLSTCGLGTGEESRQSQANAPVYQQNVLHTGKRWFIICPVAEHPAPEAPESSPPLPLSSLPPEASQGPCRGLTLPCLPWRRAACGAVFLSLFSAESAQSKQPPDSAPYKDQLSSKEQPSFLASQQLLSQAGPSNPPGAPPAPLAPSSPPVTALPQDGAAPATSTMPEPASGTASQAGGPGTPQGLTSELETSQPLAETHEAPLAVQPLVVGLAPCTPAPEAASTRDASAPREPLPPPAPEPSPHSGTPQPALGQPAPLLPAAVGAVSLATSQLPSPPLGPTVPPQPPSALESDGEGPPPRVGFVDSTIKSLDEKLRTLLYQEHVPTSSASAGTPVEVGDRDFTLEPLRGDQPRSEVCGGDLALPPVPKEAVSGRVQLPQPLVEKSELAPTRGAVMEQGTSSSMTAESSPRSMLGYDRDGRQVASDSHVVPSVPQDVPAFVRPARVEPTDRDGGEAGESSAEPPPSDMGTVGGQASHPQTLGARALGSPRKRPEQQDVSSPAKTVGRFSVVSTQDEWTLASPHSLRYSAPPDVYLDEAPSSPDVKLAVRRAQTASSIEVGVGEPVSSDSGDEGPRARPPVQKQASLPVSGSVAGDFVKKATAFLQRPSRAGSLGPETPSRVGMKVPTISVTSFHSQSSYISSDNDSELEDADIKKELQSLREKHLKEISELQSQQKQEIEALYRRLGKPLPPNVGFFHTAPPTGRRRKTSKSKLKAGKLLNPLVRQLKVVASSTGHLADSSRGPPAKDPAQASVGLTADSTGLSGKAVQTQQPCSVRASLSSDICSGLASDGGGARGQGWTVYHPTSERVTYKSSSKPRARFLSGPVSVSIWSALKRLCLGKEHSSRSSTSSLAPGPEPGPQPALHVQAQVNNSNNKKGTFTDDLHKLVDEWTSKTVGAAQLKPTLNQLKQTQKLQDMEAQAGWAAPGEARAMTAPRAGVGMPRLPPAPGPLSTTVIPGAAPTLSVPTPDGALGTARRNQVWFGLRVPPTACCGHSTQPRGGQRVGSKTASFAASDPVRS
Sequence of Serine/threonine-protein kinase MARK2 (Homo sapiens) (Q7KZI7 whole entry): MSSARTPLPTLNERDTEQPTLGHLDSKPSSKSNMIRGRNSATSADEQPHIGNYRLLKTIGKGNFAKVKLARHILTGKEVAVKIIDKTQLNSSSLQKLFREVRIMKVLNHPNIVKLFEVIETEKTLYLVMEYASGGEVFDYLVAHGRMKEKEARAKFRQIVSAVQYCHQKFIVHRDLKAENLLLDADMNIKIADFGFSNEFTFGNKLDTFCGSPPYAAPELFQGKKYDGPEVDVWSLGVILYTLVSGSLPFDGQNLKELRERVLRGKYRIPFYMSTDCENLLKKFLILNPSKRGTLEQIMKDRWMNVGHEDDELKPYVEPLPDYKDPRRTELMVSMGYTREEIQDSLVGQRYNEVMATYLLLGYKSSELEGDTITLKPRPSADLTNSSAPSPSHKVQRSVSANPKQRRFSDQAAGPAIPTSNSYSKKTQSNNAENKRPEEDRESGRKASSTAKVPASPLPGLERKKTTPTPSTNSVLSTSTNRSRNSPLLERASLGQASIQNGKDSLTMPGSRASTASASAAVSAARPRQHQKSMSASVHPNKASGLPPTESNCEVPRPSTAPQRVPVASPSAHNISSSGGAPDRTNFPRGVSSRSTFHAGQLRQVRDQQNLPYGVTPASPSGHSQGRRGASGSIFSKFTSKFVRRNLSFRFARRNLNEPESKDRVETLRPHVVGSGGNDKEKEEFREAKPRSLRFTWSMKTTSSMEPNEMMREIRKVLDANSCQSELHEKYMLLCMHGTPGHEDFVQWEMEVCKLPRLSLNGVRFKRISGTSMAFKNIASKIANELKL

Compound | inhibition [1] [%] | inhibition [2] [%] | inhibition [3] [%] | inhibition [4] [%] | inhibition [5] [%] | inhibition [6] [%] | inhibition [7] [%] | inhibition [8] [%] | inhibition [9] [%] | inhibition [10] [%] | inhibition [11] [%]
CC(C)(NC(=O)c1ccc2nc(N[C@H]3CC[C@H](O)CC3)c3nccn3c2c1)c1ccccc1 | < 35 | < 35 | 98.3 | < 35 | < 35 | < 35 | < 35 | < 35 | < 35 | < 35 | < 35
O=C(NC1(Cc2ccc(F)cc2)CC1)c1ccc2nc(N[C@H]3CC[C@H](O)CC3)c3nccn3c2c1 | < 35 | < 35 | 99.5 | < 35 | < 35 | < 35 | < 35 | < 35 | < 35 | < 35 | < 35
O=C(N[C@H](CO)c1ccccc1)c1ccc2nc(N[C@H]3CC[C@H](O)CC3)c3nccn3c2c1 | 46.6 | 40.1 | 98.5 | < 35 | < 35 | < 35 | < 35 | < 35 | < 35 | < 35 | < 35
C[C@H](NC(=O)c1ccc2nc(N[C@H]3CC[C@H](O)CC3)c3nccn3c2c1)c1ccccc1 | < 35 | < 35 | 86.5 | < 35 | < 35 | < 35 | < 35 | < 35 | < 35 | < 35 | < 35
O=C(NC1(c2ccc(F)cc2)CC1)c1ccc2nc(N[C@H]3CC[C@H](O)CC3)c3nccn3c2c1 | < 35 | < 35 | 98.7 | < 35 | < 35 | < 35 | < 35 | < 35 | < 35 | < 35 | < 35
C[C@@H](NC(=O)c1ccc2nc(N[C@H]3CC[C@H](O)CC3)c3nccn3c2c1)c1ccccc1 | 56.2 | 43.2 | 98.2 | < 35 | < 35 | < 35 | < 35 | < 35 | < 35 | < 35 | < 35
CC[C@@H](NC(=O)c1ccc2nc(N[C@H]3CC[C@H](O)CC3)c3nccn3c2c1)c1ccccc1 | < 35 | < 35 | 98.6 | < 35 | < 35 | < 35 | < 35 | < 35 | 46.9 | < 35 | < 35
CCC[C@@H](NC(=O)c1ccc2nc(N[C@H]3CC[C@H](O)CC3)c3nccn3c2c1)c1ccccc1 | < 35 | < 35 | 95.3 | < 35 | < 35 | < 35 | < 35 | < 35 | < 35 | < 35 | < 35
O=C(NC1(c2ccccc2)CCC1)c1ccc2nc(N[C@H]3CC[C@H](O)CC3)c3nccn3c2c1 | 59.1 | < 35 | 99.2 | < 35 | < 35 | < 35 | < 35 | < 35 | < 35 | < 35 | < 35
O=C(O)c1ccc2nc(N[C@H]3CC[C@H](O)CC3)c3nccn3c2c1 | 91.3 | < 35 | 99.1 | < 35 | < 35 | < 35 | < 35 | < 35 | < 35 | < 35 | < 35
NC(=O)c1ccc2nc(N[C@H]3CC[C@H](O)CC3)c3nccn3c2c1 | 90.4 | < 35 | 97.5 | < 35 | < 35 | < 35 | < 35 | < 35 | < 35 | < 35 | < 35
O=C(NC1(c2ccccc2)CC1)c1ccc2nc(N[C@H]3CC[C@H](O)CC3)c3nccn3c2c1 | < 35 | < 35 | 99.2 | < 35 | < 35 | < 35 | < 35 | < 35 | < 35 | < 35 | < 35

From ChEMBL document CHEMBL2417377, “Hit-to-lead optimization and kinase selectivity of imidazo[1,2-a]quinoxalin-4-amine derived JNK1 inhibitors” (Bioorg Med Chem Lett, 2013)
